Format in all cases: biochemical
Conditions in all cases: wild-type un-phosphorylated protein; pre-incubated for 4 hours; ATP near or below Km

In experiment [1] the target is wild-type un-phosphorylated FGFR1 (Homo sapiens, UniProt P11362). Kind of experiment: FGFR Enzymatic Assay (FRET peptide phosphorylation), FGFR1. Here is the method: (§1) The inhibitor potency of the exemplified compounds was determined in an enzyme discontinuous assay that measures peptide phosphorylation using FRET measurements to detect product formation. Inhibitors were serially diluted in DMSO and a volume of 0.2 μL was transferred to the wells of a 384-well plate. […] Appropriate controls (enzyme blank and enzyme with no inhibitor) were included on the plate. […] The ATP Km values were pre-determined in a separate series of experiments. […] The plate was allowed to equilibrate for ˜10 minutes at ambient temperature before scanning on a PheraStar plate reader (BMG Labtech) instrument.
(§2) Either GraphPad prism or XLfit was used to analyze the data. The IC50 values were derived by fitting the data to a four parameter logistic equation producing a sigmoidal dose-response curve with a variable Hill coefficient. Prism equation: Y=Bottom+(Top−Bottom)/(1+10^((LogIC50−X)*Hill slope)); XLfit equation: Y=(A+((B−A)/(1+((X/C)^D)))) where X is the logarithm of inhibitor concentration and Y is the response.

The target of experiment [2] is wild-type un-phosphorylated FGFR3 (Homo sapiens, UniProt P22607). Kind of experiment: FGFR Enzymatic Assay (FRET peptide phosphorylation), FGFR3. The procedure:
as §1, §2

In experiment [3] the target is wild-type un-phosphorylated FGFR2 (Homo sapiens, UniProt P21802). Description: FGFR Enzymatic Assay (FRET peptide phosphorylation), FGFR2. The procedure:
as §1, §2
The data in Table 1 was measured in wild-type un-phosphorylated FGFR1, FGFR2, FGFR3 and FGFR4 protein.

Chain of wild-type un-phosphorylated FGFR2 (P21802 22-821): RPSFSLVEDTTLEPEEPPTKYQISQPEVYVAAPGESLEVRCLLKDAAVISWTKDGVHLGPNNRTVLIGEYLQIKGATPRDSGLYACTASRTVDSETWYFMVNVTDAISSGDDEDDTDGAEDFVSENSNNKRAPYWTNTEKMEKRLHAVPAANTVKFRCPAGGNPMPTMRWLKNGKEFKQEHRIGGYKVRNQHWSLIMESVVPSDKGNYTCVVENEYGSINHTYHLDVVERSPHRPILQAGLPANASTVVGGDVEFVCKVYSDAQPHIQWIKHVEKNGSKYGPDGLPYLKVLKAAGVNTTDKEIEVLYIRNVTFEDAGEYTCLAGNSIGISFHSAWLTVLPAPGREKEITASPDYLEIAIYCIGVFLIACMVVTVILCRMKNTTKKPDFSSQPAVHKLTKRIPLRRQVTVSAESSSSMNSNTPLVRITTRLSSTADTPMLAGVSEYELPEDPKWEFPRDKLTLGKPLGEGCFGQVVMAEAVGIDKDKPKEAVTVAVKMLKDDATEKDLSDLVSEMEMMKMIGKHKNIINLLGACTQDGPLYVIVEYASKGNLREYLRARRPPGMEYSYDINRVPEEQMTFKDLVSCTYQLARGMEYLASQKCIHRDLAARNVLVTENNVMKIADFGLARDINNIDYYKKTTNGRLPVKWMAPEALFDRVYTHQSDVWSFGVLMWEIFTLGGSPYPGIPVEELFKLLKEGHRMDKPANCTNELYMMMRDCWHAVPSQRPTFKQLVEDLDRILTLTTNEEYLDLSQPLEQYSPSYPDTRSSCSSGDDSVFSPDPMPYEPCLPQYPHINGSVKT
Chain of wild-type un-phosphorylated FGFR1 (P11362 22-822): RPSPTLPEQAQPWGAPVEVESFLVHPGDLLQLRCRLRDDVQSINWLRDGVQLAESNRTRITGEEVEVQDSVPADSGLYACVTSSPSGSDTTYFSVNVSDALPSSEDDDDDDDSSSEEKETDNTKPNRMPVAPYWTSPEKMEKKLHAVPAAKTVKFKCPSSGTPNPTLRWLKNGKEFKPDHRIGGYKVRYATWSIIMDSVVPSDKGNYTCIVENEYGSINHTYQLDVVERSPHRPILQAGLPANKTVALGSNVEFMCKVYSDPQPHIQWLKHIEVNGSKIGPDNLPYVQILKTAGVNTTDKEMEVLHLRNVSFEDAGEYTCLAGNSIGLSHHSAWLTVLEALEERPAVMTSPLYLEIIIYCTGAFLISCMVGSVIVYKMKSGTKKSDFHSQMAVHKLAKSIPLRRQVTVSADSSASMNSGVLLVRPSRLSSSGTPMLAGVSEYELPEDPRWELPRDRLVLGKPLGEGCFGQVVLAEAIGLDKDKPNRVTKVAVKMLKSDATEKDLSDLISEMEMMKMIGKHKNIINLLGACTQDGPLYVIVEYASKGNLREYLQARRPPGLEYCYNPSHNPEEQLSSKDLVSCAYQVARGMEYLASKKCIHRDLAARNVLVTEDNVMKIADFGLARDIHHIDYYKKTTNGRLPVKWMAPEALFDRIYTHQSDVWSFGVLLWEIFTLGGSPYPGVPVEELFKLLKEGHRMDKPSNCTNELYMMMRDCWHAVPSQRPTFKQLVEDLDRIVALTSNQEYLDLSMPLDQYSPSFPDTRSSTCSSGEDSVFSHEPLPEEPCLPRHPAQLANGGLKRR
Chain of wild-type un-phosphorylated FGFR3 (P22607 23-806): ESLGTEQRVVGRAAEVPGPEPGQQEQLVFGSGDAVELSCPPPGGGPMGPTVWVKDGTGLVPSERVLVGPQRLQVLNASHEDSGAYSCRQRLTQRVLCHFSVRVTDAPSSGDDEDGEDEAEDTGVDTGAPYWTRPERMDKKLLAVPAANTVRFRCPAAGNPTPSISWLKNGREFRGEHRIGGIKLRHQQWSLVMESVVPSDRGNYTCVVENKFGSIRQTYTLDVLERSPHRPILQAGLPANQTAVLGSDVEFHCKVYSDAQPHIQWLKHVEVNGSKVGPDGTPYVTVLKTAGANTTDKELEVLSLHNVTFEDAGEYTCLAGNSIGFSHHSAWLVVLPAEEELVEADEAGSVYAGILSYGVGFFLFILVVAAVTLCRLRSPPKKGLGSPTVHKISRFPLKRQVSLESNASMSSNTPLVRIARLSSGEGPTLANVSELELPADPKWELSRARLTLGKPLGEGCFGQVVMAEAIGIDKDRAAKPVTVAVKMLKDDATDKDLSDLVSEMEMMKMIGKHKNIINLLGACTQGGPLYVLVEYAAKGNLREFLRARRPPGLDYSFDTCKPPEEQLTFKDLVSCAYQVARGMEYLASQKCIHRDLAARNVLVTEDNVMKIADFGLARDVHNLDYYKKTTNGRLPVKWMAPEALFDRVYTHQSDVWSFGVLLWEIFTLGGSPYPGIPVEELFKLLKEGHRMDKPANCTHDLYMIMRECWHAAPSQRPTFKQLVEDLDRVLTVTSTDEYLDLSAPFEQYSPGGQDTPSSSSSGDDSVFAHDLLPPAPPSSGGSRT

Usually IC50 stands for the concentration at which inhibition is half-maximal. Low readings indicate greater potency, high ones weaker potency. Take `COc1nn2c(-c3cncc(C)c3)cnc2cc1-c1cnn(C)c1` [Example 3, 6-Methoxy-7-(1-methyl-1H-pyrazol-4-yl)-3-(5-methylpyridin-3-yl)imidazo[1,2-b]pyridazine]: the IC50 was at least 0.4 µM in experiment [1] and 0.1 to 0.4 µM in experiment [2]. As to `CNC(=O)c1cncc(-c2cnc3cc(-c4cnn(C)c4)c(OC)nn23)c1` [Example 4, 5-(6-Methoxy-7-(1-methyl-1H-pyrazol-4-yl)imidazo[1,2-b]pyridazin-3-yl)-N-methylnicotinamide], in experiment [3], the IC50 fell in the range of 0.1 to 0.4 µM. Consider `COc1nn2c(-c3ccc4ncccc4c3)cnc2cc1-c1cnn(C)c1` [Example 5, 6-(6-Methoxy-7-(1-methyl-1H-pyrazol-4-yl)imidazo[1,2-b]pyridazin-3-yl)quinoline], for which the concentration for half-maximal inhibition (IC50) in experiment [1] and in experiment [2] was 0.1 to 0.4 µM in each case. In the case of `COc1nn2c(-c3cccc(N4CCOCC4)c3)cnc2cc1-c1cnn(C)c1` [Example 6, 4-(3-(6-Methoxy-7-(1-methyl-1H-pyrazol-4-yl)imidazo[1,2-b]pyridazin-3-yl)phenyl)morpholine], the IC50 in experiment [1] and in experiment [2] was 0.1 to 0.4 µM in each case. For the compound `COc1nn2c(-c3cccc(CC#N)c3)cnc2cc1-c1cnn(C)c1` [Example 7, 2-(3-(6-Methoxy-7-(1-methyl-1H-pyrazol-4-yl)imidazo[1,2-b]pyridazin-3-yl)phenyl)acetonitrile], the concentration for half-maximal inhibition (IC50) in experiment [1] and in experiment [2] was 0.01 to 0.1 µM throughout. Consider `CNS(=O)(=O)c1cccc(-c2cnc3cc(-c4cnn(C)c4)c(OC)nn23)c1` [Example 8, 3-(6-Methoxy-7-(1-methyl-1H-pyrazol-4-yl)imidazo[1,2-b]pyridazin-3-yl)-N-methylbenzenesulfonamide], for which the IC50 in experiment [1] and in experiment [2] was below 0.01 µM in each case. For `COc1nn2c(-c3cccc(C(C)(C)O)c3)cnc2cc1-c1cnn(C)c1` [Example 9, 2-(3-(6-Methoxy-7-(1-methyl-1H-pyrazol-4-yl)imidazo[1,2-b]pyridazin-3-yl)phenyl)propan-2-ol], the IC50 in experiment [1] and in experiment [2] was 0.01 to 0.1 µM each time. As to `COc1nn2c(-c3cccc(NC(C)=O)c3)cnc2cc1-c1cnn(C)c1` [Example 10, N-(3-(6-Methoxy-7-(1-methyl-1H-pyrazol-4-yl)imidazo[1,2-b]pyridazin-3-yl)phenyl)acetamide], the IC50 in experiment [1] and in experiment [2] was below 0.01 µM throughout. `CNC(=O)c1cc(-c2ccc(F)cc2F)cc(-c2cnc3cc(-c4cnn(C)c4)c(OC)nn23)c1` [Example 11, 2′,4′-Difluoro-5-(6-methoxy-7-(1-methyl-1H-pyrazol-4-yl)imidazo[1,2-b]pyridazin-3-yl)-N-methyl-[1,1′-biphenyl]-3-carboxamide]: the values for the IC50 in experiment [1] and in experiment [2] were 0.01 to 0.1 µM and below 0.01 µM, respectively. On the same counts, the results for `CNC(=O)c1ccc(OC)c(-c2cnc3cc(-c4cnn(C)c4)c(OC)nn23)c1` [Example 12, 4-Methoxy-3-(6-methoxy-7-(1-methyl-1H-pyrazol-4-yl)imidazo[1,2-b]pyridazin-3-yl)-N-methylbenzamide] are at least 0.4 µM and at least 0.4 µM. Regarding `CNC(=O)c1ccc(C#N)c(-c2cnc3cc(-c4cnn(C)c4)c(OC)nn23)c1` [Example 13, 4-Cyano-3-(6-methoxy-7-(1-methyl-1H-pyrazol-4-yl)imidazo[1,2-b]pyridazin-3-yl)-N-methylbenzamide], the IC50 in experiment [1] and in experiment [2] was at least 0.4 µM each time. Consider `COc1nn2c(-c3cc(C(=O)NCC(F)(F)F)ccc3F)cnc2cc1-c1cnn(C)c1` [Example 14, 4-Fluoro-3-(6-methoxy-7-(1-methyl-1H-pyrazol-4-yl)imidazo[1,2-b]pyridazin-3-yl)-N-(2,2,2-trifluoroethyl)benzamide], for which the IC50 in experiment [1] and in experiment [2] was 0.01 to 0.1 µM throughout. With `CNC(=O)c1cncc(-c2cnc3cc(-c4cnn(C)c4)c(OC4COC4)nn23)c1` [Example 15, N-Methyl-5-(7-(1-methyl-1H-pyrazol-4-yl)-6-(oxetan-3-yloxy)imidazo[1,2-b]pyridazin-3-yl)nicotinamide], the IC50 is 0.01 to 0.1 µM in experiment [1] and below 0.01 µM in experiment [2].

Turning to `CNC(=O)c1cc(F)c(F)c(-c2cnc3cc(-c4cnn(C)c4)c(O[C@H]4CCN(C)C4)nn23)c1` [Example 16, (S)-3,4-Difluoro-N-methyl-5-(7-(1-methyl-1H-pyrazol-4-yl)-6-((1-methylpyrrolidin-3-yl)oxy)imidazo[1,2-b]pyridazin-3-yl)benzamide], the concentration for half-maximal inhibition (IC50) in experiment [1] and in experiment [2] was at least 0.4 µM throughout. Take `CNC(=O)c1cc(F)c(F)c(-c2cnc3cc(-c4cnn(C)c4)c(O[C@H]4CCNC4)nn23)c1` [Example 17, (S)-3,4-Difluoro-N-methyl-5-(7-(1-methyl-1H-pyrazol-4-yl)-6-(pyrrolidin-3-yloxy)imidazo[1,2-b]pyridazin-3-yl)benzamide]: the IC50 in experiment [1] is at least 0.4 µM; in experiment [2] it was 0.01 to 0.1 µM. In the case of `CNC(=O)c1cc(F)c(F)c(-c2cnc3cc(-c4cnn(C)c4)c(O[C@H]4CCNC4=O)nn23)c1` [Example 18, (S)-3,4-Difluoro-N-methyl-5-(7-(1-methyl-1H-pyrazol-4-yl)-6-((2-oxopyrrolidin-3-yl)oxy)imidazo[1,2-b]pyridazin-3-yl)benzamide], the half-inhibitory concentration (IC50) in experiment [1] was 0.01 to 0.1 µM; in experiment [2], below 0.01 µM. On the same counts, the results for `CNC(=O)c1cc(-c2cnc3cc(-c4cnn(C)c4)c(O[C@H]4CCOC4)nn23)c(F)c(N(C)C)c1` [Example 37, (S)-3-(Dimethylamino)-4-fluoro-N-methyl-5-(7-(1-methyl-1H-pyrazol-4-yl)-6-((tetrahydrofuran-3-yl)oxy)imidazo[1,2-b]pyridazin-3-yl)benzamide] are 0.1 to 0.4 µM and 0.01 to 0.1 µM.

Turning to `CNC(=O)c1cc(-c2cnc3cc(-c4cnn(C)c4)c(O[C@H]4CCOC4)nn23)c(F)c(C2CC2)c1` [Example 38, (S)-3-Cyclopropyl-4-fluoro-N-methyl-5-(7-(1-methyl-1H-pyrazol-4-yl)-6-((tetrahydrofuran-3-yl)oxy)imidazo[1,2-b]pyridazin-3-yl)benzamide], the IC50 in experiment [1] was 0.01 to 0.1 µM; in experiment [2], below 0.01 µM.

With `Cc1cc(-c2cn(C)nn2)cc(-c2cnc3cc(-c4cnn(C)c4)c(O[C@H]4CCOC4)nn23)c1F` [Example 39, (S)-3-(2-Fluoro-3-methyl-5-(1-methyl-1H-1,2,3-triazol-4-yl)phenyl)-7-(1-methyl-1H-pyrazol-4-yl)-6-((tetrahydrofuran-3-yl)oxy)imidazo[1,2-b]pyridazine], the figures for the IC50 in experiment [1] and in experiment [2] were at least 0.4 µM and 0.1 to 0.4 µM, respectively. In experiment [3], `CNC(=O)c1cc(-c2cnc3cc(-c4cnn(C)c4)c(O[C@H]4CCOC4)nn23)c(F)c(C(F)F)c1` [Example 41, (S)-3-(Difluoromethyl)-4-fluoro-N-methyl-5-(7-(1-methyl-1H-pyrazol-4-yl)-6-((tetrahydrofuran-3-yl)oxy)imidazo[1,2-b]pyridazin-3-yl)benzamide] displayed a half-inhibitory concentration (IC50) below 0.01 µM. On the same count and under the same terms, the result for `CNC(=O)c1cc(C)c(F)c(-c2cnc3cc(-c4cnn(C)c4)c(O[C@H]4CCOC4)nn23)c1` [Example 42, (S)-4-Fluoro-N,3-dimethyl-5-(7-(1-methyl-1H-pyrazol-4-yl)-6-((tetrahydrofuran-3-yl)oxy)imidazo[1,2-b]pyridazin-3-yl)benzamide] reads below 0.01 µM; that for `CNC(=O)c1cc(F)c(F)c(-c2cnc3cc(-c4cnn(C)c4)c(O[C@H]4CCOC4)nn23)c1` [Example 43, (S)-3,4-Difluoro-N-methyl-5-(7-(1-methyl-1H-pyrazol-4-yl)-6-((tetrahydrofuran-3-yl)oxy)imidazo[1,2-b]pyridazin-3-yl)benzamide], below 0.01 µM.

Regarding `CNC(=O)c1cncc(-c2cnc3cc(-c4cnn(C)c4)c(OCC(F)F)nn23)c1` [Example 50, 5-(6-(2,2-Difluoroethoxy)-7-(1-methyl-1H-pyrazol-4-yl)imidazo[1,2-b]pyridazin-3-yl)-N-methylnicotinamide], the IC50 in experiment [1] is at least 0.4 µM; in experiment [2], 0.01 to 0.1 µM. For `CNC(=O)c1cccc(-c2cnc3cc(-c4cnn(C)c4)c(OC4CC(C#N)C4)nn23)c1` (centres unmarked) [Example 56, 3-(6-(3-Cyanocyclobutoxy)-7-(1-methyl-1H-pyrazol-4-yl)imidazo[1,2-b]pyridazin-3-yl)-N-methylbenzamide], the IC50 in experiment [1] and in experiment [2] was 0.1 to 0.4 µM throughout. Take `Cn1cc(-c2cc3ncc(-c4cccc(-n5cccn5)c4)n3nc2OC2COC2)cn1` [Example 61, 3-(3-(1H-Pyrazol-1-yl)phenyl)-7-(1-methyl-1H-pyrazol-4-yl)-6-(oxetan-3-yloxy)imidazo[1,2-b]pyridazine]: the IC50 in experiment [1] and in experiment [2] was 0.01 to 0.1 µM each time. As to `Cn1cc(-c2cc3ncc(-c4ccc5cnn(C)c5c4)n3nc2OC2CCOC2)cn1` (centres unmarked) [Example 65, 3-(1-Methyl-1H-indazol-6-yl)-7-(1-methyl-1H-pyrazol-4-yl)-6-((tetrahydrofuran-3-yl)oxy)imidazo[1,2-b]pyridazine], the 50% inhibitory concentration (IC50) in experiment [1] was at least 0.4 µM; in experiment [2] it was 0.1 to 0.4 µM. Regarding `Cn1cc(-c2cc3ncc(-c4ccc5oncc5c4)n3nc2OC2CCOC2)cn1` (centres unmarked) [Example 66, 5-(7-(1-Methyl-1H-pyrazol-4-yl)-6-((tetrahydrofuran-3-yl)oxy)imidazo[1,2-b]pyridazin-3-yl)benzo[d]isoxazole], the IC50 was in the range of 0.1 to 0.4 µM in experiment [1] and 0.01 to 0.1 µM in experiment [2].

The record behind these values is US12012409B2, “Bicyclic heterocycles as FGFR inhibitors” (Incyte Corporation, priority 2020, dated 2024).
